Source: patent US10125100B2, “Kinase inhibitors” (Respivert Limited, priority 2014, dated 2018)
One block for each compound: values may come before it.

What was measured:
[1] = biological target: GSK 3α (Homo sapiens (Human), UniProt P49840); assay: GSK 3α enzyme inhibition (Method 2), Z-LYTE FRET; assay type: biochemical; settings: read-out: IC50 Values for Enzyme Inhibition GSK3α
Procedure: The enzyme inhibitory activities of compounds disclosed herein are determined by FRET using synthetic peptides labelled with both donor and acceptor fluorophores (Z-LYTE, Invitrogen Ltd., Paisley, UK).
The following two assay variants can be used for determination of GSK 3α inhibition.
The inhibitory activities of compounds of the invention against the GSK 3α enzyme isoform (Invitrogen), are evaluated by determining the level of activation/phosphorylation of the target peptide. The GSK3-α protein (500 ng/mL, 2.5 μL) is mixed with the test compound (2.5 μL at either 4 μg/mL, 0.4 μg/mL, 0.04 μg/mL, or 0.004 μg/mL) for 2 hr at RT. The FRET peptide (8 μM, 2.5 μL), which is a phosphorylation target for GSK3α, and ATP (40 μM, 2.5 μL) are then added to the enzyme/compound mixture and the resulting mixture incubated for 1 hr. Development reagent (protease, 5 μL) is added for 1 hr prior to detection in a fluorescence microplate reader (Varioskan® Flash, ThermoFisher Scientific).
In all cases, the site-specific protease cleaves non-phosphorylated peptide only and eliminates the FRET signal. Phosphorylation levels of each reaction are calculated using the ratio of coumarin emission (donor) over fluorescein emission (acceptor), for which high ratios indicate high phosphorylation and low ratios indicate low phosphorylation levels.
This method follows the same steps as Method 1 above, but utilises a shorter period of mixing of the test compound (105 minutes instead of 2 hours) with the GSK3-α protein. In addition, the concentrations of test compound employed are either 10 μg/mL, 1 μg/mL, 0.1 μg/mL, or 0.01 μg/mL

[2] = test system: mitosis in PBMCs; assay: (g) Cell mitosis assay; assay type: cell-based; settings: Homo sapiens, PBMC, 5 μg/mL
Method in brief: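 Healthy-donor PBMCs stimulated with 2% PHA for 48 hr, then exposed to test compounds at varying concentrations for 20 hr; demecolcine (0.1 μg/mL) added 2 hr before collection for metaphase arrest. Cells fixed/permeabilized, stained with anti-phospho-histone 3 and propidium iodide; mitotic cells counted by flow cytometry gating on lymphocytes.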

[3] = biological target: c-Src (Homo sapiens (Human), UniProt P12931); assay: c-Src enzyme inhibition, Z-LYTE FRET; assay type: biochemical
Method in brief: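 Human Syk and c-Src (enzyme at 2000 or 3000 ng/mL respectively, pre-dilution) preincubated 2 hr at RT with compound at 1, 0.1, 0.01 or 0.001 μg/mL; FRET peptide added with ATP (60 μM Syk, 800 μM c-Src; solution concentrations), 1 hr. Protease development 1 hr; phosphorylation from coumarin/fluorescein emission ratio.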

[4] = biological target: Syk (Homo sapiens (Human), UniProt P43405); assay: Syk enzyme inhibition, Z-LYTE FRET; assay type: biochemical
Method in brief: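 Syk or c-Src enzyme (3000 or 2000 ng/mL solutions) was preincubated 2 h at RT with compound solutions at 1, 0.1, 0.01 or 0.001 µg/mL. Z-LYTE FRET peptide (8 µM solution) and ATP (800 µM solution for c-Src, 60 µM for Syk) were then added for 1 h, followed by protease development for 1 h. Phosphorylation was read as the coumarin/fluorescein emission ratio.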

[5] = test system: Crohn's patients; settings: transient, returning to baseline by week 8; cited from earlier work
[6] = test system: patients with severe Crohn's disease; settings: over 8 weeks; cited from earlier work
[7] = test system: LPS-stimulated Lewis rats; assay: (vi) Endotoxin-induced uveitis in rats; assay type: in vivo, rat
Procedure: Male, Lewis rats (6-8 weeks old, Charles River UK Limited) are housed in cages of 3 at 19-21° C. with a 12 h light/dark cycle (07:00/19:00) and fed a standard diet of rodent chow and water ad libitum. Non-fasted rats are weighed, individually identified on the tail with a permanent marker, and receive a single intravitreal administration into the right vitreous humor (5 μL dose volume) of 100 ng/animal of LPS (Escherichia coli 0111:B4 prepared in PBS, Sigma Aldrich, UK) using a 32-gauge needle. Untreated rats are injected with PBS. Test compound or vehicle (4% polyoxyl 40 stearate, 4% mannitol in PBS ([…])) are administered by the topical route onto the right eye (10 μL) of animals 1 hour prior to LPS, at the time of LPS administration, and 1, 2 and 4 hours post LPS administration. Before administration, the solution to be administered is sonicated to ensure a clear solution. 6 hours after LPS dosing, animals are euthanized by overdose with pentobarbitone (via cardiac puncture). Immediately after euthanasia, 10 μL of aqueous humor is collected from the right eye of the rats by puncture of the anterior chamber using a 32 gauge needle under a surgical microscope. The aqueous humor is diluted in 20 μL of PBS and total cell counts are measured immediately using a Countess automated cell counter (Invitrogen). Following collection of the aqueous humour, the right eye of each animal is enucleated and dissected into front (anterior) and back (posterior) sections around the lens. Each section is weighed and homogenised in 500 μL of sterile phosphate buffered saline followed by 20 minutes centrifugation at 12000 rpm at 4° C. The resulting supernatant is divided into 3 aliquots and stored at −80° C. until subsequent cytokine analysis by R&D DuoSet ELISA.

[8] = test system: Escherichia coli, WP2 uvrA; assay: Bacterial reverse mutation screen; settings: plate incorporation, presence and absence of S-9 mix
[9] = test system: eyes of albino New Zealand White rabbits
[10] = test system: Salmonella typhimurium, strains TA1535, TA1537, TA98 and TA100; assay: Bacterial reverse mutation screen
[11] = biological target: B-Raf (V600E) (Homo sapiens (Human), UniProt P15056, V600E); assay: KINOMEscan binding of kinase to standard ligand; settings: KINOMEscan technology
Text: (§1) These assays may be conducted by DiscoverX (formerly Ambit; San Diego, Calif.).

[12] = biological target: B-Raf (Homo sapiens (Human), UniProt P15056); assay: KINOMEscan binding of kinase to standard ligand; settings: KINOMEscan technology
Text: as §1

[13] = Stability of pharmaceutical formulations; assay type: physicochemical
Procedure: The samples were sonicated to achieve clear solutions having the following properties: Osmolality (mOsm/kg): 310 (Na), 314 (HCl); pH: 7.00 (Na), 7.05 (HCl). 0.5 mL of the stock solutions were diluted to 1 mL with 20% DMSO in water & injected for purity analysis by HPLC. The remaining stock solutions were then split into aliquots of 0.5 mL in HPLC vials, and stored at various conditions in duplicate. Samples were stored at 5 and 25° C., before being analysed by HPLC at 1, 2 and 4 weeks. Separate samples were stored at 40° C. and analysed at 4 weeks.

[14] = test system: rheumatoid arthritis patients; settings: cited from earlier work
[15] = rats treated with intravitreal endotoxin LPS
[16] = sodium (Na) salt, 1 mg/mL in 10 mM pH 7.2 phosphate buffer, 4.5% mannitol, 3% polyoxyl 40 stearate

Chain of GSK 3α (P49840 whole entry): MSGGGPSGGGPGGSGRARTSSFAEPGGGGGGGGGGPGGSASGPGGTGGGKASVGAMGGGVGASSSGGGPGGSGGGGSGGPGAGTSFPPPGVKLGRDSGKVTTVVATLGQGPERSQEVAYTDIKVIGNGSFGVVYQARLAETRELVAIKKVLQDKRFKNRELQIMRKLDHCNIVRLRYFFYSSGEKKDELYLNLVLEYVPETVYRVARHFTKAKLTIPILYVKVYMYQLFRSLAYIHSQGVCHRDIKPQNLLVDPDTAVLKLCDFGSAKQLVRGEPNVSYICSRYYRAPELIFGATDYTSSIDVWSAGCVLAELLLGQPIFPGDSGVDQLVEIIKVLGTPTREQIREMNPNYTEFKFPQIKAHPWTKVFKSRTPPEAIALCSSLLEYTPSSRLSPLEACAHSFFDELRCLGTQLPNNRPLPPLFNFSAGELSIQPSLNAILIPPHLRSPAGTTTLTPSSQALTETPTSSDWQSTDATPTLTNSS
Chain of c-Src (P12931 whole entry, looked up): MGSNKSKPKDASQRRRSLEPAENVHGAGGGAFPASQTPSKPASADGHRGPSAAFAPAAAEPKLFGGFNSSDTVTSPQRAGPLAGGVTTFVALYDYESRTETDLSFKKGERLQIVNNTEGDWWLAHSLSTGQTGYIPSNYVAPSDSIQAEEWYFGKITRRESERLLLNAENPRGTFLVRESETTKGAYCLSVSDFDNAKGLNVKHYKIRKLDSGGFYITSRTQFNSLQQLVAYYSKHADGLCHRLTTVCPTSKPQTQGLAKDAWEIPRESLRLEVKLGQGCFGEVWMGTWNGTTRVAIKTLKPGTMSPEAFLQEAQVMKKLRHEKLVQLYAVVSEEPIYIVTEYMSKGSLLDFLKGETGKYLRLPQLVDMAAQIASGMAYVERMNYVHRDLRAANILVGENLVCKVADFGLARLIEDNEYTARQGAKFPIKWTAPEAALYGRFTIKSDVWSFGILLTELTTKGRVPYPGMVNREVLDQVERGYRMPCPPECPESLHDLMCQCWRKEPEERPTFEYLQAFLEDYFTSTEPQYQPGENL
Chain of B-Raf (V600E) (P15056 whole entry V600E): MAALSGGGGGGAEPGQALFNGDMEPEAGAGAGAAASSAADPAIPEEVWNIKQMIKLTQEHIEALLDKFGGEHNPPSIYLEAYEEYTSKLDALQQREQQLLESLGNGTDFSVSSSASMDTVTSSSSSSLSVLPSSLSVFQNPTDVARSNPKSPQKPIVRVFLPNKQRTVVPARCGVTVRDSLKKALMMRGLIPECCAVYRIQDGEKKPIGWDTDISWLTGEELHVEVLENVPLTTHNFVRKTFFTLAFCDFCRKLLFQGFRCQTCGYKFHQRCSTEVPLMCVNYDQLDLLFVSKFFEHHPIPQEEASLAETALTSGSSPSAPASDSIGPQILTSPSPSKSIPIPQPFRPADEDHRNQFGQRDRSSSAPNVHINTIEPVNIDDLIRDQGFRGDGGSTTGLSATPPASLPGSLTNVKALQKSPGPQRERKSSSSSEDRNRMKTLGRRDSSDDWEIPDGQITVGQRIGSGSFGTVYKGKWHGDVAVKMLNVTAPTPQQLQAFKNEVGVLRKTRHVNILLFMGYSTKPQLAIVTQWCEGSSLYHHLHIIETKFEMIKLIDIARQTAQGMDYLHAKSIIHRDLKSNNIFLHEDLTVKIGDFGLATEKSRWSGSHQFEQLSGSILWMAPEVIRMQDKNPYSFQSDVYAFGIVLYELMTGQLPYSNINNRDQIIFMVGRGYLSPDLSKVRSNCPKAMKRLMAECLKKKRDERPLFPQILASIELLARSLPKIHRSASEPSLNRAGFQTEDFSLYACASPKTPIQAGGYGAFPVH
Chain of B-Raf (P15056 whole entry): as the sequence (P15056 whole entry V600E) above, with E600V counted along it

IC50 [1]: 4000 nM
IC50 [3]: 16 nM
Structure (SMILES): COc1cc(Nc2cc(Oc3ccc(NC(=O)Nc4cc(C(C)(C)C)cc(NS(C)(=O)=O)c4OC)c4ccccc34)ccn2)ccc1C(=O)NCCN1CCN(C)CC1 [17(a), 4-[[4-[[4-[[5-tert-butyl-3-(methanesulfonamido)-2-methoxy-phenyl]carbamoylamino]-1-naphthyl]oxy]-2-pyridyl]amino]-2-methoxy-N-[2-(4-methylpiperazin-1-yl)ethyl]benzamide]
inhibition at 5 µg/mL [2]: 75.6%

IC50 [1]: 2740 nM
IC50 [4]: 105 nM
IC50 [3]: 17 nM
Structure (SMILES): COc1cc(Nc2cc(Oc3ccc(NC(=O)Nc4cc(C(C)(C)C)cc(NS(C)(=O)=O)c4OC)c4ccccc34)ccn2)ccc1C(=O)NCCCN1CC[S+]([O-])CC1 [17(ag), 4-[[4-[[4-[[5-tert-butyl-3-(methanesulfonamido)-2-methoxy-phenyl]carbamoylamino]-1-naphthyl]oxy]-pyridyl]amino]-2-methoxy-N-[3-(1-oxo-1,4-thiazan-4-yl)propyl]benzamide]
inhibition at 5 µg/mL [2]: 51.8%

IC50 [1]: 9190 nM
IC50 [4]: 57 nM
IC50 [3]: 20 nM
Structure (SMILES): COc1cc(Nc2cc(Oc3ccc(NC(=O)Nc4cc(C(C)(C)C)cc(NS(C)(=O)=O)c4OC)c4ccccc34)ccn2)ccc1C(=O)NCCCN1CCS(=O)(=O)CC1 [17(ah), 4-[[4-[[4-[[5-tert-butyl-3-(methanesulfonamido)-2-methoxy-phenyl]carbamoylamino]-1-naphthyl]oxy]-2-pyridyl]amino]-N-[3-(1,1-dioxo-1,4-thiazinan-4-yl)propyl]-2-methoxy-benzamide]
inhibition at 5 µg/mL [2]: 32.5%

Structure (SMILES): Cc1ccc(-n2nc(C(C)(C)C)cc2NC(=O)Nc2ccc(OCCN3CCOCC3)c3ccccc23)cc1 [BIRB796]
clinical benefit, C-reactive protein levels [5]: improvement in C-reactive protein levels

Structure (SMILES): C/C(=N\N=C(N)N)c1cc(NC(=O)CCCCCCCCC(=O)Nc2cc(/C(C)=N/N=C(N)N)cc(/C(C)=N/N=C(N)N)c2)cc(/C(C)=N/N=C(N)N)c1.Cl.Cl.Cl.Cl [CNI-1493]
clinical score [6]: significant improvement in clinical score

Structure (SMILES): COc1cc(Nc2cc(Oc3ccc(NC(=O)Nc4cc(C(C)(C)C)cc(NS(C)(=O)=O)c4OC)c4ccccc34)ccn2)ccc1C(=O)O [Example 1, 4-((4-((4-(3-(5-(tert-Butyl)-2-methoxy-3-(methylsulfonamido)phenyl)ureido)naphthalen-1-yl)oxy)pyridin-2-yl)amino)-2-methoxybenzoic acid]
IL-1β (pg/mL) Anterior tissue ([7]; LPS-stimulated rats, topical 0.01 mg/mL, mean ± SEM): 980.0 ± 110.8 pg/mL
cellular infiltration (cell counts) in the eyes [7, 15]: significantly and dose-dependently reduced
cytokine IL-1β levels in anterior and posterior segments of the eyes [7, 15]: significantly and dose-dependently reduced
mutagenic effects (revertant numbers) [8]: absence of any mutagenic effects
local tolerability of the formulations, Phase 2 ([9]; 3 treatment days): acceptable without any aggravation
local tolerability of the formulations, Phase 1 ([9]; after a single dosing day): acceptable
ocular reactions compared with vehicle controls, Phase 1 ([9]; one treatment day, 0.1 and 1.0 mg/mL, four daily instillations): no differences in the frequency, severity and incidence
main ocular reactions, Phase 2 ([9]; three consecutive treatment days, 0.1 and 1.0 mg/mL, four daily instillations): limited to conjunctival redness (grade 1)
toxicity of the test item to the bacteria (mean colony count) ([10]; at the highest doses (500-5000 μg/plate) in some strains): reduction in the mean colony count
mutagenic effects (revertant numbers) ([10]; plate incorporation, presence and absence of S-9 mix): absence of any mutagenic effects
effect on the binding of B-Raf (V600E) to its standard ligand [11]: did not have any significant effect
effect on the binding of B-Raf to its standard ligand [12]: did not have any significant effect
stability in solution ([13]; 1 mg/mL formulation, 5° C., up to 4 weeks): stable
pH of solution ([13]; hydrochloride (HCl) salt, 1 mg/mL in 10 mM pH 7.2 phosphate buffer, 4.5% mannitol, 3% polyoxyl 40 stearate): 7.05
Osmolality [13, 16]: 310 mOsm/kg
pH of solution [13, 16]: 7.00
inhibition at 5 µg/mL [2]: 2.4%

Structure (SMILES): COc1cc(Nc2ncc(F)c(Nc3ccc4c(n3)N(COP(=O)(O)O)C(=O)C(C)(C)O4)n2)cc(OC)c1OC [Fostamatinib]
clinical outcome [14]: improved clinical outcome
serum levels of IL-6 and MMP-3 [14]: reduced serum levels of IL-6 and MMP-3
